In US11492351B2, “MTA-cooperative PRMT5 inhibitors” (Mirati Therapeutics, Inc., priority 2019, dated 2022):
Blank lines part the entries; values can stand above or below the compound they belong to.

Key:
[1] = target: T1, PRMT5/MEP50 complex (Homo sapiens (Human), UniProt O14744); assay: PRMT5:MEP50 FlashPlate Assay (histone H4 peptide, plus and minus MTA); format: biochemical
Description: (§1) The PRMT5 inhibitory activity of compounds of the present invention was determined using either a PRMT5:MEP50 FlashPlate Assay (Reaction Biology Corporation) or a PRMT5:MEP50 HotSpot Assay (Reaction Biology Corporation).
1. PRMT5:MEP50 FlashPlate Assay

[2] = target: T1, PRMT5/MEP50 complex; assay: PRMT5:MEP50 HotSpot Assay (full-length histone H2A, plus and minus MTA); format: biochemical
Description: as §1
The assay uses recombinant full-length histone H2A as the PRMT5 substrate. […] The reaction was stopped and transferred to filter paper for detection. The amount of tritiated H2A in each sample was determined using a scintillation counter.

[3] = in the absence of MTA, read-out: IC50
[4] = read-out: IC50 + 2 μM MTA, in the presence of 2 μM MTA

T1 sequence (O14744 whole entry): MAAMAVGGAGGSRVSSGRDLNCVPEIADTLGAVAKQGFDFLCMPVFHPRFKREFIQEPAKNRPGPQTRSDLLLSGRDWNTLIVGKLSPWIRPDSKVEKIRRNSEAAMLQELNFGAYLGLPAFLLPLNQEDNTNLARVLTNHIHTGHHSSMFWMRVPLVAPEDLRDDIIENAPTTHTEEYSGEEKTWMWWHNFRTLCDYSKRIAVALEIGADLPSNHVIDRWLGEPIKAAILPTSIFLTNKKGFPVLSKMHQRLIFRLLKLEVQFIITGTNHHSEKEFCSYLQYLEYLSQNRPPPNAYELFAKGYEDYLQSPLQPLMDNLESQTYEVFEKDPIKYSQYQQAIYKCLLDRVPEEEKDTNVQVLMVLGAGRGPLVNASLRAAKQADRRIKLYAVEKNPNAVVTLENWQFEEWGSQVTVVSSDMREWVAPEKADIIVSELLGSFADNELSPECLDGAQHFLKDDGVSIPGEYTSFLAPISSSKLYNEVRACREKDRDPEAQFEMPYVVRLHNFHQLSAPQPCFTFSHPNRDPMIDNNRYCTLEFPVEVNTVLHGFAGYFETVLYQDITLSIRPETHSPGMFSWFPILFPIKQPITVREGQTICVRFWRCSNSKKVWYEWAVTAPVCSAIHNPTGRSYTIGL
T1 sequence (Q9BQA1 whole entry partner): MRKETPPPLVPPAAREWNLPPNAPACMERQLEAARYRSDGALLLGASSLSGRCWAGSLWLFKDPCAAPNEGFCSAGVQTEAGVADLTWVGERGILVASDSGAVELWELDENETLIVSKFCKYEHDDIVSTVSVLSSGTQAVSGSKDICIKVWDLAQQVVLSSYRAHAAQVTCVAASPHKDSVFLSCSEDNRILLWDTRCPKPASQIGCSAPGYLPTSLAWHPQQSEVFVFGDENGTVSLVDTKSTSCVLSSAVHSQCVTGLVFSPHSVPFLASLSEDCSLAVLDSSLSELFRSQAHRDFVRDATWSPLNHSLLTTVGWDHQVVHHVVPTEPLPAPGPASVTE

- IC50 [1, 3]: 4.94 µM
- IC50 [1, 4]: 0.37 µM
Compound: Cc1cc2c(=O)[nH]nc(CN)c2cc1-c1cncc(C#N)c1 [Example 3-38]

- IC50 [2, 3]: > 10 µM
Compound: Cn1ncc(-c2ccc3c(=O)[nH]nc(CN)c3c2)c1-c1ccccc1C#N [Example 4-100, 2-(4-(4-(aminomethyl)-1-oxo-1,2-dihydrophthalazin-6-yl)-1-methyl-1H-pyrazol-5-yl)benzonitrile]

- IC50 [1, 3]: > 100 µM
Compound: Cc1nc2cncc(-c3ccc4c(=O)[nH]nc(CN)c4c3)c2o1 [Example 4-110, 4-(aminomethyl)-6-(2-methyloxazolo[4,5-c]pyridin-7-yl)phthalazin-1(2H)-one]

- IC50 [2, 4]: > 10 µM
Compound: Cn1ncc(-c2ccc3c(=O)[nH]nc([C@H](N)C(F)F)c3c2)c1-c1ccc2ccccc2c1C#N [Example 9-6, 2-[4-[4-[(1S)-1-amino-2,2-difluoro-ethyl]-1-oxo-2H-phthalazin-6-yl]-2-methyl-pyrazol-3-yl]naphthalene-1-carbonitrile]
